In data set [1] the test system is CREB-mediated gene transcription. The experiment in a line: Inhibition of CREB-mediated gene transcription (CRE Renilla luciferase reporter, forskolin stimulated). Format: cell-based. The following applies: 5 h, HEK293T CRE luciferase reporter cells, forskolin 10 uM. How it is done: The compounds were tested for their inhibition of CREB-mediated gene transcription according to the method described in Xie et al. J. Med. Chem. 2015, 58, 5075-5087. Generally, HEK293T cell transfected with luciferase reporter cell lines under CRE control were obtained from commercial sources. The cells were plated into 96-well plates (1-[…] cells/well). The cells were allowed to attach to the bottom of the wells overnight, when compounds of different concentrations were added to the cells. Forskolin (10 uM, LC Laboratories, Woburn, Mass.) was added 30 min after the addition of the compounds. The cells were then incubated at 37° C. for 5 h. The media in the wells were removed and the cells were then lysed in 30 µl of 1×Renilla luciferase lysis buffer (Promega, Madison, Wis.). To measure Renilla luciferase activity, five uL of the lysate was combined with 30 uI of benzyl-coelenterazine (Nanolight, Pinetop, Ariz.) solution in PBS (pH 7.4, 10 ug/mL). The sample protein concentration was determined by Dye Reagent Concentrate (Bio-Rad, Hercules, Calif). The Renilla luciferase activity was normalized to protein content in each well and expressed as relative luciferase unit/ug protein (RLU/ug protein). The IC50 was derived from non-linear regression analysis of the RLU/ug protein-concentration curve.
Background: In a reporter assay the amount or activity of a reporter protein is the signal.

The conditions of data set [2]: in vivo; cited from earlier work.
The next data set deals with HL-60 cells. Nature of the data set: AML xenograft model. Format: in vivo. Conditions: HL-60 xenograft in NSG mice, 2 mg/kg IV daily. Here is the method: For AML xenograft mouse experiments, HL-60 cells (2×10^6) expressing firefly luciferase and GFP are injected through the tail vein into 4-6 week old NOD. Cg-Prkdc^acid Il2rg^tmlWjlSzJ (NSG) mice. Mice are then treated with 2 mg/kg SRS-1006 or 10% DMSO, injected intravenously by tail vein daily seven days after AML cell injection, until death or an endpoint is reached (moribundity) in accordance with the animal care institutional guidelines. Leukemia progression in mice at the indicated time points is monitored using an in vivo IVIS 100 bioluminescenceoptical imaging system (Xenogen Corporation). D-Luciferin (Promega) dissolved in sterile phosphate-buffered saline was injected intraperitoneally at a dose of […], 15 minutes before measuring the luminescent signal. General anesthesia is induced with […] and continued during the procedure using a nose cone. Analysis is performed on Living Image In Vivo imaging software (Perkin-Elmer). Bone marrow is aspirated from bone marrow cavities, and GFP+cells is sorted using the FACSCalibur flow cytometer (BD Biosciences).

The next data set deals with KG-1. The experiment in a line: Cytotoxicity assay (Cell-titer-Glow, 72 hr). In kind it is cell-based. Conditions: Homo sapiens; leukemia cell line KG-1, 72hr; read-out: IC50 for inhibition of KG-1. Here is the method:
(§1) The cells were obtained from ATCC, IMDM was obtained from Lonza, and FBS was obtained from Hyclone. Cell-titer-Glow for cytotoxicity was from Promega. Sterile 96-well tissue culture plates were from Corning. Different concentrations of the test compounds were tested in triplicate wells of either 96-well or 384-well tissue culture plates. The screening was repeated two additional times. The cells from ATCC were thawed, washed once with complete media, and cultured in T75 flask in a 37C CO2 incubator. Cell density was maintained between 5×10 5 to 1×10^6 cells/ml. Compounds were individually weighed and dissolved in DMSO to obtain 10 mM solutions of each and stored at −20° C. until used. To select concentrations of the compounds for cytotoxicity, all the compounds were initially tested at 100 μM and 30 μM in a 48 hr cytotoxicity assay. Two microliter of each concentration of the test compounds were transferred into triplicate wells of a 96-well tissue culture plate. Into each well 100 μof the cell suspension was added, the plate was lidded and incubated at 37° C. in a 5% CO2 incubator maintained at 95% humidity After 72hr of incubation, the plate was removed from the incubator, and the cell viability was determined using Cell-titer-glow reagent as per the protocol described in the kit manual. Signals from the plate was measured using Victor-II plate reader. The raw data from the plate reader were exported to Excel. For each concentration of the drug tested the average signal and SD from the triplicate wells, as well as the percent cytotoxicity were calculated. The resulting data were exported to Prism-graph-pad, the % cytotoxicity was plotted against log concentration and the resulting curves were fitted using non-linear dose response fit and the resulting IC50 values were extracted.

The test system of the next data set is Hep3B. Nature of the data set: Cytotoxicity assay (Cell-titer-Glow, 72 hr). The following applies: Homo sapiens, Hep3B cells, read-out: IC50 for inhibition of Hep3B. Format: cell-based. Here is the method:
as §1

The next data set has as its system NaLM6. Nature of the data set: Cytotoxicity assay (Cell-titer-Glow, 72 hr). In kind it is cell-based. Conditions: Homo sapiens, NALM-6; leukemia cell line NaLM6, 72hr; read-out: IC50 for inhibition of NaLM6. Here is the method:
as §1

A further data set concerns MCF-7. Nature of the data set: Cytotoxicity assay (Cell-titer-Glow, 72 hr). Format: cell-based. Conditions: Homo sapiens, MCF7; breast cancer line MCF-7, 72hr; read-out: IC50 for inhibition of MCF-7. Here is the method:
as §1

In another data set the test system is BT-474. Nature of the data set: Cytotoxicity assay (Cell-titer-Glow, 72 hr). The following applies: Homo sapiens; breast cancer line BT-474, 72hr; read-out: IC50 for inhibition of BT-474. In kind it is cell-based. How it is done:
as §1

A further data set has as its system MV-411. The experiment in a line: Cytotoxicity assay (Cell-titer-Glow, 72 hr). In kind it is cell-based. Conditions: Homo sapiens, MV4-11; leukemia cell line MV-411, 72hr; read-out: IC50 for inhibition of MV-411. How it is done: as §1
A further data set deals with A549. Nature of the data set: Cytotoxicity assay (Cell-titer-Glow, 72 hr). Format: cell-based. The following applies: Homo sapiens, A549 cells, read-out: IC50 for inhibition of A549. Here is the method: as §1
The next data set relates to HL-60. The experiment in a line: Cytotoxicity assay (Cell-titer-Glow, 72 hr). In kind it is cell-based. Conditions: Homo sapiens; leukemia cell line HL-60, 72hr; read-out: IC50 for inhibition of HL-60. Here is the method:
as §1

Another data set deals with MiaPaCa2. Nature of the data set: Cytotoxicity assay (Cell-titer-Glow, 72 hr). Format: cell-based. The following applies: Homo sapiens, MIA PaCa-2, MiaPaCa2 cells, read-out: IC50 for inhibition of MiaPaCa2. How it is done:
as §1

A further data set has as its system Hs587T. Nature of the data set: Cytotoxicity assay (Cell-titer-Glow, 72 hr). Format: cell-based. The following applies: breast cancer line Hs587T, read-out: IC50 for inhibition of Hs587T. How it is done:
as §1

Data set [3] can be described thus: Mouse pharmacokinetics, plasma by LC-MS/MS. In kind it is in vivo, mice (C57BL/6). Conditions: female C57BL/6 mice. How it is done: The compound was formulated in an aqueous solution containing 5% Tween-80, 10% DMSO. Female mice (C57BL/6) were given a single dose of the formulation at 5 mg/kg (IV), 10 mg/kg (IP) and 20 mg/kg (orally). At different time points (0.083, 0.25, 0.5, 1, 2, 4, 8, 24 h) post drug administration, blood was collected and the plasma was prepared. The samples were stored at −80° C. until analysis. The drug concentration in the plasma was analyzed by LC-MS/MS.

One may read the IC50 as the concentration needed to halve the response being measured. For orientation: bioavailability means the share of a dose that reaches the circulation, judged against a reference dose that is usually intravenous.

Where two headings read alike, the source gives them in different places.

In the case of `NCCCOc1cc2ccccc2cc1C(=O)NCCOc1cc2ccccc2cc1C(=O)Nc1ccc(Cl)cc1Cl` [SRS-1005], in [1] (Homo sapiens, HEK-293T), the IC50 is 1550 nM.

Consider `O=C(Nc1ccc(Cl)cc1)c1cc2ccccc2cc1O` [napththol AS-E, naphthol AS-E], for which the bioavailability result in [2] is listed as “low”.

`N#Cc1ccc(NC(=O)c2cc3ccccc3cc2OCCNC(=O)c2cc3ccccc3cc2OCCCN)cc1` [SRS-1004]: the IC50 in data set [1] (Homo sapiens, HEK-293T) was found to be 1200 nM.

Turning to `Cl.NCCCOc1cc2ccccc2cc1C(=O)NCCOc1cc2ccccc2cc1C(=O)Nc1ccccc1F` [SRS-1006], in the data set on HL-60 cells, the “median survival in Kaplan-Meier analysis” value is reported as “significantly prolonged”. In addition, the “disease burden by bioluminescence imaging” value in the data set with HL-60 cells (compared to control) is “less disease burden”. The IC50 is 180 nM in [1] (Homo sapiens, HEK-293T); 3390 nM with KG-1; 1460 nM in the data set on Hep3B; 970 nM in the data set on NaLM6; 1470 nM in the data set on MCF-7; 5210 nM with BT-474. Besides, the IC50 in the data set with MV-411 is 990 nM; with A549 it was 1490 nM; in the data set on HL-60, 650 nM; in the data set on MiaPaCa2 it was 1700 nM; in the data set on Hs587T it was 3690 nM. For the same compound, the bioavailability in [3] (single dose 5 mg/kg IV, read-out: IV bioavailability) worked out at 100%; in [3] (single dose 10 mg/kg IP, read-out: IP bioavailability) it was 100%; in data set [3] (po, single dose 20 mg/kg orally, read-out: oral bioavailability), 67%.

With `NCCCOc1cc2ccccc2cc1C(=O)NCCOc1cc2ccccc2cc1C(=O)Nc1c(F)cccc1F` [SRS-1007], the half-maximal inhibitory concentration (IC50) came to 410 nM in data set [1] and 450 nM in data set [1] (Homo sapiens, HEK-293T).

Compound `NCCCOc1cc2ccccc2cc1C(=O)NCCOc1cc2ccccc2cc1C(=O)Nc1ccc(Cl)cc1` [SRS-1002] yielded a half-maximal inhibitory concentration (IC50) in data set [1] (Homo sapiens, HEK-293T) of 1550 nM.

With `NCCCOc1cc2ccccc2cc1C(=O)NCCOc1cc2ccccc2cc1C(=O)Nc1ccccc1` [SRS-1001], half-maximal inhibition in data set [1] (Homo sapiens, HEK-293T) (IC50) was put at 1260 nM.

In [1] (Homo sapiens, HEK-293T), `NCCCOc1cc2ccccc2cc1C(=O)NCCOc1cc2ccccc2cc1C(=O)Nc1ccc(F)cc1` [SRS-1003] gave an IC50 of 410 nM.

(Values after patent US20230416191A1, “Compounds, Compositions and Methods for the Treatment of CREB-dependent Diseases” (Sereno Sciences, Inc., priority 2022, published 2023).)
